From ChEMBL document CHEMBL1146285, “Trimethylsilylpyrazoles as novel inhibitors of p38 MAP kinase: a new use of silicon bioisosteres in medicinal chemistry” (Bioorg Med Chem Lett, 2007) come the findings set out here.

Data set [1] can be described thus: Partition coefficient, log P of the compound. It counts as physicochemical. The note with it: octanol/water.
Data set [2] is described as follows: Distribution coefficient, log D at pH 6.0. It counts as physicochemical. The note with it: octanol/water.
A short description of data set [3]: Distribution coefficient, log D at pH 6.5. Type of data set: physicochemical. The conditions noted are these: octanol/water.
Data set [4] is described as follows: Distribution coefficient, log D at pH 7.4. Type of data set: physicochemical. The note with it: octanol/water.
A short description of data set [5]: Metabolic stability in human liver microsomes at 1 uM after 40 mins. Type of data set: ADME, Microsome. The conditions noted are these: read-out: Stability.
In data set [6] the test system is Mus musculus. The data set is described as follows: Suppression of lipopolysaccharide-induced TNFalpha release in mouse at 10 mg/kg, po after 30 mins. Type of data set: functional.
Data set [7] relates to Mus musculus. Briefly: Suppression of lipopolysaccharide-induced TNFalpha release in mouse at 10 mg/kg, po after 120 mins. It counts as functional.

Each structure is given as a SMILES string.

Take `Cc1ccc(-n2nc(C(C)(C)C)cc2NC(=O)Nc2ccc(OCCN3CCOCC3)c3ccccc23)cc1` [DORAMAPIMOD]: in data set [1], the logP came to 5.2. Further, the logD in data set [2] was 4.6; in data set [3] it was 4.9; in data set [4] it was 5.1. Moreover, the remaining at 40 min, 1 µM in data set [5] stood at 79%. The Activity is reported as -41% in the data set with Mus musculus [6] and -40% in the data set with Mus musculus [7].

The term logP denotes the decadic logarithm of the partition coefficient of the neutral form, usually between octanol and water. Read a low logP as lower lipophilicity. The logD is lipophilicity at a set pH, counting ionised and neutral species. Low values mean a more hydrophilic compound, high ones a more lipophilic compound.
